# Read-outs that look alike come from different tables or passages of the source.
# How the values were obtained:
# [1] = cited from earlier work; for dose proportionality of AUC: dose range of 200–1200 mg, ref Smolders et al., 2019
# [2] = Plasma drug exposure, individual non-compartmental analysis (days 0 and 28 pooled); format: in vivo, human; set-up: AUC(0-t) / AUClast: concentration or dose not given beside the values; settings: median (5th-95th percentile); for AUC(0-t): human
# Procedure: (§1) In addition, intensive drug level sampling was conducted in a subset of 40 participants, who were sequentially invited to join an ancillary PK study. In this subgroup, five samples were collected in each participant after the first dose of SOF/DCV and at day 28, according to one of two randomly assigned sampling schedules (A and B). In sampling schedule A, drug levels were measured at 0.5-, 2-, 4-, 6- and 24-hr post-dose; in sampling schedule B, drug levels were measured at 1-, 3-, 5-, 8- and 24-hr post-dose.
# (§2) Drug quantification was performed using liquid chromatography-tandem mass spectrometer at Mahidol Oxford Tropical Medicine Research Unit, Bangkok. Two separate analytical assays were developed and validated to quantify SOF plus its metabolite GS-331007, and DCV, respectively. Full methodological details of the PK/PD analysis are provided in Appendix 1.
# In the second analysis, data from days 0 and 28 were pooled for each individual. […] The mean value of drug concentrations was used if patients had two or more samples taken at the same time point. These derived individual drug exposures were used to evaluate the relationship between drug exposure and therapeutic outcome. It was assumed that the participants had no drug concentrations at time 0. In this analysis, the first measurement below LLOQ in a series of LLOQ samples was imputed as LLOQ/2 and the later measurements were ignored. In both approaches, SOF samples taken at ≥24 hr post-dose were excluded. […] In addition, outcome variables and the relationship between outcome variables and drug exposure were evaluated. Additional detail of the PK/PD analysis is provided in Appendix 1.
# (§3) Maximum concentration (Cmax) and time to reach maximum concentration (tmax) were derived directly from the observed drug concentrations. The software’s automatic slope calculator was used to derive the elimination rate (λ) (adjusted R2 value with uniform weighting) and terminal elimination half-life (t1/2). The drug exposure measured as area under the concentration-time curve (AUC) was calculated for each drug using the trapezoidal method. Linear interpolation was used for acceding concentrations and log-linear interpolation for descending concentrations. For the individual analysis, the linear method was used for all measurements due to accumulation between the day 0 and day 28 measurements. Both the AUC to the last time point (AUClast, 8 hours for SOF and 24 hours for GS-331007 and DCV) and AUC to infinity (AUCinf) were calculated.
# Two different sampling schedules were used to collect pharmacokinetic samples on day 0 and day 28, resulting in an overlapping sampling profile overall. Therefore, data collected within an individual on a specific day was not dense enough to justify a non-compartment analysis. […] Two separate pharmacokinetic analyses were carried out. A naïve-pooled analysis was performed separately conducted on day 0 and 28 data. […] Therefore, a second analysis was performed in which the data from day 0 and 28 were pooled for each individual. […] However, the individual analysis should still generate median exposure values for each patient, which can be linked with treatment outcome. Another drawback is that no pre-dose samples were collected.
# [3] = Plasma pharmacokinetics, naïve pooled non-compartmental analysis (days 0 and 28); format: in vivo, human; set-up: AUClast / AUC(0-t) / AUCINF / AUC(0-inf): concentration or dose not given beside the values; settings: for AUCINF / AUC(0-inf): extrapolated to infinity; for AUClast / AUC(0-t): to 8 hours for SOF, 24 hours for GS-331007 and DCV; for drug accumulation: between day 0 and 28; for half-life: read-out: t1/2, terminal elimination half-life (converted); for AUC(0-inf): po
# Procedure: as §1, §2
# Intensive drug levels of SOF, its metabolite GS-331007, and DCV from the subset of 40 patients at days 0 and 28, together with any EOT samples at day 28, were analysed using non-compartmental analysis in PKanalix version 2020R1 ([Lixoft, 2022]). Two separate analyses were performed to characterise the pharmacokinetic properties of the study drugs.
# In the first, naïve pooled analyses were performed separately on data from days 0 and 28 (not including EOT samples) to derive median pharmacokinetic parameters at each day. In these analyses, the median concentration at each protocol time was calculated. Individual concentration measurements below the LLOQ were set to LLOQ/2 when calculating the median values. It was assumed that the participants had no drug concentrations at time 0.
# Sofosbuvir and GS-331007 were extracted from 100 µL of plasma using phospholipid removal in the 96-well plate format (Phree, 8E-S133-TGB, Phenomenex), followed by separation on a Gemini, 50 mm × 2.0 mm I.D. 5 µm, column (00B-4435-B0, Phenomenex). Quantification was performed using selected reaction monitoring for the transitions m/z 530.2–>243.2 (sofosbuvir), 536.2–>243.1 (isotope-labelled internal standard for sofosbuvir), 261.3–>113.1 (GS-331007), and 265.3–>113.1 (isotope-labelled internal standard for GS-331007).
# The lower limit of quantification (LLOQ) was set to 1.95 ng/mL for sofosbuvir and 20.5 ng/mL for GS-331007. A total of 9 quality control samples (3×low, 3×mid and 3×high concentration) were analysed for each analyte within each batch of clinical samples (96-well plate), resulting in an accuracy of 2.81–2.93% RSE for sofosbuvir and 2.19–3.50% RSE for GS-331007.
# DCV was extracted from 100 µL of plasma using supported liquid extraction in the 96-well plate format (ISOLUTE SLE +96 well plate, 820–0200 P01, Biotage), followed by separation on a Gemini, 50 mm × 2.0 mm I.D. 5 µm, column (00B-4435-B0, Phenomenex). Quantification was performed using selected reaction monitoring for the transitions m/z 739.5–>339.3 (DCV) and 747.5–>339.3 (isotope-labelled internal standard for DCV). The LLOQ was set to 1.64 ng/mL for DCV. A total of 9 quality control samples (3×low, 3×mid and 3×high concentration) were analysed within each batch of clinical samples (96-well plate), resulting in an accuracy of 2.46–2.62% RSE for DCV.
# as §3, with “Both the AUC to the last time point (AUClast, 8 hours for SOF and 24 hours for GS-331007 and DCV) and AUC to infinity (AUCinf) were calculated.” left out
# [4] = individual analysis, all patients (n=37)
structure (smiles),measurement,setting,value
C[C@@]1(F)[C@H](O)[C@@H](CO)O[C@H]1n1ccc(=O)[nH]c1=O [GS-331007],dose proportionality of AUC,[1],near dose proportional
same,Median AUClast,[2]; 4-week cures (n=15),"11,700 (8420–14,100) h×ng/ml"
same,Median AUClast,[2]; 4-week failures (n=8),"15,100 (9240–19,700) h×ng/ml"
same,Median AUClast,[2]; 8-week cures (n=14),"14,000 (10,200–17,400) h×ng/ml"
same,AUClast,[2]; [4],"3,430 (2,200-4,720) h×ng/mL"
same,"t1/2, terminal elimination half-life",[3]; Day 0,9.20 h
same,tmax,[3]; Day 0,3.00 h
same,Cmax,"[3]; Day 0, plasma, oral SOF 400 mg + DCV 60 mg",988 ng/mL
same,AUCINF,[3]; Day 0,"12,700 h×ng/mL"
same,AUClast,[3]; Day 0,"10,500 h×ng/mL"
same,"t1/2, terminal elimination half-life",[3]; Day 28,12.4 h
same,tmax,[3]; Day 28,4.00 h
same,Cmax,"[3]; Day 28, plasma","1,230 ng/mL"
same,AUCINF,[3]; Day 28,"20,400 h×ng/mL"
same,AUClast,[3]; Day 28,"14,600 h×ng/mL"
same,drug accumulation,[3],Drug accumulation was observed
"CC(C)OC(=O)[C@H](C)N[P@](=O)(OC[C@H]1O[C@@H](n2ccc(=O)[nH]c2=O)[C@](C)(F)[C@@H]1O)Oc1ccccc1 [Sofosbuvir, sofosbuvir]",dose proportionality of AUC,[1],near dose proportional
same,half-life,"[1]; ref de Kanter et al., 2014",less than 1 hr
same,AUC(0-t),"[2]; in vivo, 4-week cures (n=15), read-out: Median AUClast",2360 ng·h/mL
same,AUC(0-t),"[2]; in vivo, 4-week failures (n=8), read-out: Median AUClast",2220 ng·h/mL
same,AUC(0-t),"[2]; in vivo, 8-week cures (n=14), read-out: Median AUClast",2120 ng·h/mL
same,AUClast,[2]; [4],"1,140 (598-2,150) h×ng/mL"
same,tmax,[3]; Day 0,1.00 h
same,half-life,"[3]; human, in vivo, Day 0",0.67 h
same,AUC(0-t),"[3]; human, in vivo, Day 0",1550 ng·h/mL
same,half-life,"[3]; human, in vivo, Day 28",0.65 h
same,AUC(0-t),"[3]; human, in vivo, Day 28",1600 ng·h/mL
same,AUC(0-inf),"[3]; human, in vivo, Day 0",1550 ng·h/mL
same,AUC(0-inf),"[3]; human, in vivo, Day 28",1600 ng·h/mL
same,Cmax,"[3]; human, in vivo, Day 0, plasma, oral SOF 400 mg + DCV 60 mg, read-out: Cmax",1320 ng/mL
same,Cmax,"[3]; human, in vivo, Day 28, plasma, read-out: Cmax",1070 ng/mL
"COC(=O)N[C@H](C(=O)N1CCC[C@H]1c1nc(-c2ccc(-c3ccc(-c4c[nH]c([C@@H]5CCCN5C(=O)[C@@H](NC(=O)OC)C(C)C)n4)cc3)cc2)c[nH]1)C(C)C [Daclatasvir, daclatasvir]",AUC(0-t),"[2]; plasma, oral, 4-week cures (n=15), read-out: Median AUClast",13000 ng·h/mL
same,AUC(0-t),"[2]; plasma, oral, 4-week failures (n=8), read-out: Median AUClast",13200 ng·h/mL
same,AUC(0-t),"[2]; plasma, oral, 8-week cures (n=14), read-out: Median AUClast",14200 ng·h/mL
same,AUC(0-t),"[2]; plasma, oral, individual analysis, all patients (n=37), read-out: AUClast",9770 ng·h/mL
same,drug accumulation,[3],Drug accumulation was observed
same,Cmax,"[3]; human, oral, Day 28, plasma, read-out: Cmax",1110 ng/mL
same,AUC(0-t),"[3]; human, plasma, oral, Day 0",11400 ng·h/mL
same,half-life,"[3]; human, plasma, oral, Day 28",8.18 h
same,AUC(0-t),"[3]; human, plasma, oral, Day 28",12400 ng·h/mL
same,half-life,"[3]; human, plasma, oral, Day 0",7.31 h
same,tmax,"[3]; human, plasma, oral, Day 0, read-out: tmax",3 h
same,AUC(0-inf),"[3]; human, plasma, Day 0",12800 ng·h/mL
same,AUC(0-inf),"[3]; human, plasma, Day 28",14400 ng·h/mL
same,Cmax,"[3]; human, Day 0, plasma, oral SOF 400 mg + DCV 60 mg, read-out: Cmax",1170 ng/mL

# Source: PMC9870305, “Efficacy of ultra-short, response-guided sofosbuvir and daclatasvir therapy for hepatitis C in a single-arm mechanistic pilot study” (eLife, 2023)
